Measurements taken from US8080423B2, “Reagent containing protease reaction promoter and/or colorant stabilizer” (Asahi Kasei Pharma Corporation, priority 2004, dated 2011).
“And” between values parts separate entries of the source, which are not always exact repeats. Identical values can stand only once. Like-named read-outs stand apart in the source and are kept apart here.

What was measured:
[1] = system: Neutral protease (manufactured by Toyobo Co., Ltd.); test: Screening of protease reaction promoter (Example 1); type: biochemical; settings: for protease reaction promoting effect (in words): judged from Table 1
Experimental: 1) R-1: Reagent for Protein Decomposition
2) R-2: Reagent for Glycated Amino Acid Detection
The following substances were independently used as a test sample. Note that concentrations described in parentheses each represent a final concentration of the substance in the reagent R1.
Absorbance before the addition of the reagent R-2 and 5 minutes after the addition was measured at 660 nm. […] The AH-AL shown in Table 1 is a difference obtained by subtracting absorbance AL which was obtained from the primary calibrator at level 2 (5.38%) from absorbance AH which was obtained from the primary calibrator at level 4 (9.88%). Here, if AH-AL is large, the sample is judged to have a protease reaction promoting effect. In particular, when AH-AL is 20 or more, the sample has an excellent promoting effect.

[2] = Screening of stabilizer for colorant, MBTH-TOOS (Example 13); type: physicochemical
[3] = Screening of stabilizer for colorant, DA64 (Example 13); type: physicochemical; settings: DA-64, 750 nm, 37° C., additives at conc. (1%; IDA 1 mM; Zn, Al 0.1 mM; ferrocyanide 0.01 mM; sorbitol 5%; DMSO 10%)
Experimental: (§1) The following substances were used as test samples. Note that concentrations described in parentheses each represent a final concentration of the substance in the reagent R-1.
(§2) Tween-20 (1%), Brij35 (1%), Triton X-100 (1%), deoxycholic acid (1%), imino-diacetic acid (IDA; 1 mM), ZnSO4 (0.1 mM), AlCl3 (0.1 mM), potassium ferrocyanate (0.01 mM), sorbitol (5%), glucose (5%), sodium nitrite (2 mM), dimethylsulfoxide (DMSO; 10%) (those substances are manufactured by Wako Pure Chemical Industries, Inc.), 2-hydroxypropyl-β-cyclodextrin (2HP β CD; 0.5%, 2%, 5%) and methyl-β-cyclodextrin (M β CD; 0.5%, 2%, 5%) (those substances are manufactured by Nihon Shokuhin Kako Co., Ltd.).
(§3) 500 μl of the R-1 reagent and 500 μl of the R-2 which had been incubated to 37° C. were mixed. The mixture was incubated to 37° C. for 2 minutes, and absorbance thereof (A0) was measured. The mixture was added with 10 μl of 500 μM hydrogen peroxide or distilled water. The whole was incubated to 37° C., and absorbance exactly 5 minutes after the addition of hydrogen peroxide (A1) was measured, to calculate a change in absorbance ΔA (A1-A0). The absorbance was measured using a wavelength of 750 nm when DA64 was used as the colorant, a wavelength of 660 nm when DA67 was used as the colorant, and a wavelength of 570 nm when 4-AA-TOOS was used as the colorant.
(§4) Immediately after the preparation of the reagent, the reagent was preserved at 37° C. for 2 days and 9 days, and measurement of sensitivity of a blank which was distilled water and of hydrogen peroxide was performed.

[4] = Screening of stabilizer for colorant, DA67 (Example 13); type: physicochemical
Experimental: as §1, §2, §3, §4

[5] = test sample 1% in R-1, 660 nm, 20 or more = excellent promoting effect
[6] = test sample 2 mM in R-1, 660 nm
[7] = DA-67, 660 nm, 37° C., 0 days, additives at conc. (1%; IDA 1 mM; Zn, Al 0.1 mM; ferrocyanide 0.01 mM; sorbitol 5%; DMSO 10%)
[8] = DA-67, 660 nm, 37° C., 2 days, additives at conc. (1%; IDA 1 mM; Zn, Al 0.1 mM; ferrocyanide 0.01 mM; sorbitol 5%; DMSO 10%)
[9] = MBTH-TOOS, 570 nm, 37° C., 0 days, additives at conc. (1%; IDA 1 mM; Zn, Al 0.1 mM; ferrocyanide 0.01 mM; sorbitol 5%; DMSO 10%)
[10] = MBTH-TOOS, 570 nm, 37° C., 2 days, additives at conc. (1%; IDA 1 mM; Zn, Al 0.1 mM; ferrocyanide 0.01 mM; sorbitol 5%; DMSO 10%)
[11] = test sample 1 mM in R-1, 660 nm

| Compound | AH (absorbance from primary calibrator at level 4 (9.88%)) ([1]; test sample 1% in R-1, 660 nm) | AL (absorbance from primary calibrator at level 2 (5.38%)) ([1]; test sample 1% in R-1, 660 nm) | AH − AL [1, 5] [mAbs] | protease reaction promoting effect (in words) [1] | also measured |
| --- | --- | --- | --- | --- | --- |
| CCCCCCCCCCCC[N+](C)(C)CC(=O)[O-] [AM-301, betaine lauryl dimethylaminoacetate] | 122.0 | 109.9 | 12.1 |  |  |
| Nc1ncnc2c1ncn2[C@@H]1O[C@H](COP(=O)(O)OP(=O)(O)OP(=O)(O)O)[C@@H](O)[C@H]1O [ATP, adenosine 5′-triphosphate, reference compound] |  |  |  |  | AH (absorbance from primary calibrator at level 4 (9.88%)) [1, 6]: 57.8; AH − AL [1, 6]: 3.6 mAbs; AL (absorbance from primary calibrator at level 2 (5.38%)) [1, 6]: 54.2 |
| [Cl][Al]([Cl])[Cl] [AlCl3] |  |  |  |  | AH (absorbance from primary calibrator at level 4 (9.88%)) [1]: 60.7; AH − AL [1]: 5.6 mAbs; AL (absorbance from primary calibrator at level 2 (5.38%)) [1]: 55.1; blank (distilled water) change in absorbance [2]: 0.045 Abs and 0.055 Abs and 0.058 Abs; change in absorbance when 500 μM of hydrogen peroxide was measured [2]: 0.005 and 0.009 |
| C[C@H](CCC(=O)NCCC[N+](C)(C)CCCS(=O)(=O)[O-])[C@H]1CC[C@H]2[C@@H]3[C@H](O)C[C@@H]4C[C@H](O)CC[C@]4(C)[C@H]3C[C@H](O)[C@]12C [CHAPS, 3-[(3-cholamidopropyl)dimethyl-ammonio]propanesulfonic acid, reference compound] | 111.4 | 104.5 | 6.9 |  |  |
| C[S+](C)[O-] [Dimethylsulfoxide, dimethylsulfoxide, reference compound] |  |  |  |  | blank (distilled water) change in absorbance ([3]; 0 days): −0.005 Abs; blank (distilled water) change in absorbance ([3]; 2 days): 0.085 Abs; blank (distilled water) change in absorbance ([3]; 9 days): 0.233 Abs; blank (distilled water) change in absorbance [4, 7]: 0.088 Abs; blank (distilled water) change in absorbance [4, 8]: 2.103 Abs; AH (absorbance from primary calibrator at level 4 (9.88%)) ([1]; test sample 10% in R-1, 660 nm): 63.0; AH − AL ([1]; test sample 10% in R-1, 660 nm): 3.4 mAbs; AL (absorbance from primary calibrator at level 2 (5.38%)) ([1]; test sample 10% in R-1, 660 nm): 59.6; blank (distilled water) change in absorbance [2, 9]: 0.149 Abs; blank (distilled water) change in absorbance [2, 10]: 1.134 Abs |
| CCCCCCCCCCCCCOCCOCCOCCOCCOCCOCCOCC(=O)[O-].[Na+] [ECTD-6NEX, sodium polyoxyethylene(6)tridecyl ether acetate] | 82.9 | 53.4 | 29.5 | effects were observed |  |
| Cc1cc2nc3c(=O)[nH]c(=O)nc-3n(C[C@H](O)[C@H](O)[C@H](O)COP(=O)(O)OP(=O)(O)OC[C@H]3O[C@@H](n4cnc5c(N)ncnc54)[C@H](O)[C@@H]3O)c2cc1C [FAD, flavin adenine dinucleotide, reference compound] |  |  |  |  | AH (absorbance from primary calibrator at level 4 (9.88%)) [1, 6]: 46.2; AH − AL [1, 6]: 0.7 mAbs; AL (absorbance from primary calibrator at level 2 (5.38%)) [1, 6]: 45.5 |
| O=C(O)CNCC(=O)O [IDA, imino-diacetic acid, reference compound] |  |  |  |  | blank (distilled water) change in absorbance ([3]; 0 days): −0.010 Abs; blank (distilled water) change in absorbance ([3]; 2 days): 0.078 Abs; blank (distilled water) change in absorbance ([3]; 9 days): 0.210 Abs; blank (distilled water) change in absorbance [4, 7]: 0.089 Abs; blank (distilled water) change in absorbance [4, 8]: 2.131 Abs; AH (absorbance from primary calibrator at level 4 (9.88%)) [1, 11]: 67.7; AH − AL [1, 11]: 5.5 mAbs; AL (absorbance from primary calibrator at level 2 (5.38%)) [1, 11]: 62.2; blank (distilled water) change in absorbance [2, 9]: 0.151 Abs; blank (distilled water) change in absorbance [2, 10]: 1.213 Abs |
| CCCCCCCCCCCC(=O)N(C)CCS(=O)(=O)[O-].[Na+] [LMT, sodium N-lauroyl methyl taurinate] | 102.4 | 73.0 | 29.4 | effects were observed |  |
| CCCCCCCCCCCCOP(=O)(O)O [Phosten HLP, lauryl phosphate] | 134.6 | 121.9 | 12.7 |  |  |
| CCCCCCCCCCCCOCCOCCOS(=O)(=O)O.OCCN(CCO)CCO [SBL-2T-36, triethanolamine polyoxyethylene(2)lauryl ether sulfate] | 93.3 | 65.3 | 28.0 | effects were observed |  |
| CCCCCCCCCCCCOCCOCCOCCOCCOS(=O)(=O)O.OCCN(CCO)CCO [SBL-4T, triethanolamine polyoxyethylene(4)lauryl ether sulfate] | 103.2 | 75.2 | 28.0 | effects were observed |  |
| CCCCCCCCCCCCOS(=O)(=O)[O-].[Na+] [SLS, sodium lauryl sulfate, reference compound] | 53.3 | 48.7 | 4.6 |  |  |
| O=NO [Sodium nitrite, sodium nitrite, reference compound] |  |  |  |  | AH (absorbance from primary calibrator at level 4 (9.88%)) [1]: 107.9; AH − AL [1]: 26.2 mAbs; AL (absorbance from primary calibrator at level 2 (5.38%)) [1]: 81.7 |
| O=[N+]([O-])c1ccc(-[n+]2nc(-c3ccc(S(=O)(=O)O)cc3S(=O)(=O)O)nn2-c2ccc(I)cc2)c([N+](=O)[O-])c1 [WST-3, 2-(4-iodophenyl)-3-(2,4-dinitrophenyl)-5-(2,4-disulfophenyl)-2H-tetrazolium, reference compound] |  |  |  |  | AH (absorbance from primary calibrator at level 4 (9.88%)) [1, 6]: 184.6; AH − AL [1, 6]: 23.7 mAbs; AL (absorbance from primary calibrator at level 2 (5.38%)) [1, 6]: 160.9 |
| O=S(=O)([O-])[O-].[Zn+2] [ZnSO4, reference compound] |  |  |  |  | blank (distilled water) change in absorbance [4]: 0.051 Abs and 0.062 Abs and 0.050 Abs; AH (absorbance from primary calibrator at level 4 (9.88%)) [1]: 145.7; AH − AL [1]: 1.6 mAbs; AL (absorbance from primary calibrator at level 2 (5.38%)) [1]: 144.1; blank (distilled water) change in absorbance [2]: 0.050 Abs and 0.049 Abs and 0.055 Abs; change in absorbance when 500 μM of hydrogen peroxide was measured [2]: 0.003 |
| monostearate polyoxyethylene(15)glyceryl [TMGS-15] | 92.0 | 82.2 | 9.8 |  |  |
| sodium cocoyl sarcosinate [Sarcosinate CN-30] | 106.2 | 76.6 | 29.6 | effects were observed |  |
| sodium polyoxyethylene(3)tridecyl ether acetate [ECTD-3NEX] | 95.8 | 68.3 | 27.5 | effects were observed |  |
| triethanolamine polyoxyethylene(3)alkyl ether sulfate [SBL-203-27] | 112.1 | 84.3 | 27.8 | effects were observed |  |
